Data on two compounds can be found in US12685781B2, “Anti-HER3 antibody-drug conjugate” (DAIICHI SANKYO COMPANY, LIMITED, priority 2014, dated 2026).

Data set [1] can be described thus: Stability of released drug derivative. The data set is classed as physicochemical. To be noted: self-degradation to release HO—CH2—C(═O)—(NH-DX). From the text: Meanwhile, in case of NH2—CH2—O—CH2—C(═O)—(NH-DX), it was confirmed that, as the aminal structure in the molecule is unstable, it again undergoes a self-degradation to release the following HO—CH2—C(═O)—(NH-DX). Those compounds can be also preferably used as a production intermediate of the antibody-drug conjugate of the present invention.

In the next data set the test system is various cancer cells. The note with it: cited from earlier work.
The test system of a further data set is human tumor. The note with it: human tumor subcutaneously transplanted; cited from earlier work.
The next data set has as its target T1, topoisomerase I (Homo sapiens, UniProt P11387).
T1 sequence (P11387 1-765): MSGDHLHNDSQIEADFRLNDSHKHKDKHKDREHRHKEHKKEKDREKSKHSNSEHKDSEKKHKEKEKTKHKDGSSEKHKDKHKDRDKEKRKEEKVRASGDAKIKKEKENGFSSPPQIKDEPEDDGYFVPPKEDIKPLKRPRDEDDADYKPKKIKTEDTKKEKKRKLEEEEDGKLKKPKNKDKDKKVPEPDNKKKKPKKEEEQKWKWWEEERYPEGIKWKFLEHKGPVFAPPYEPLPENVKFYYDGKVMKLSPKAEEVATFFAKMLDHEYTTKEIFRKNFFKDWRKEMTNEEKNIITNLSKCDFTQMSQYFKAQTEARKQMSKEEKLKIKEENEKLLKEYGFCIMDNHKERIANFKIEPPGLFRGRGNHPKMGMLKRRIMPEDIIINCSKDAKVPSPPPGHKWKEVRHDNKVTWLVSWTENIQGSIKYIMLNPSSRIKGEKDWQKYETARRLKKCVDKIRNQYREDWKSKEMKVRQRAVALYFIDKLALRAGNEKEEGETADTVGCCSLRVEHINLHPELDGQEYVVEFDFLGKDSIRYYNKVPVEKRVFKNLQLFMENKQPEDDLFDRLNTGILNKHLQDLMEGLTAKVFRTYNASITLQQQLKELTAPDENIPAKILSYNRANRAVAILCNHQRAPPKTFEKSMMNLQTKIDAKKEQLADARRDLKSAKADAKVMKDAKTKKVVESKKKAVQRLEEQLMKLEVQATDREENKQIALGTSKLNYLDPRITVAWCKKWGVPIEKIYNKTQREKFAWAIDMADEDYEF
To be noted: cited from earlier work.

Regarding `CC[C@@]1(O)C(=O)OCc2c1cc1n(c2=O)Cc2c-1nc1cc(F)c(C)c3c1c2[C@@H](NC(=O)COCN)CC3` [NH2—CH2—O—CH2—C(═O)—(NH-DX)], the “stability of the aminal structure in the molecule” value in data set [1] was “unstable”.

On to `CC[C@@]1(O)C(=O)OCc2c1cc1n(c2=O)Cc2c-1nc1cc(F)c(C)c3c1c2[C@@H](N)CC3` [exatecan, (1S,9S)-1-amino-9-ethyl-5-fluoro-2,3-dihydro-9-hydroxy-4-methyl-1H,12H-benzo[de]pyrano[3′,4′:6,7]indolizino[1,2-b]quinolin-10,13(9H,15H)-dione], for which the “cytocidal activity in vitro compared to SN-38 and topotecan” value in the data set with various cancer cells is given as “higher cytocidal activity”. In addition, the antitumor effect entry in the data set with human tumor was “potent antitumor effect”. Besides, the “inhibitory activity on topoisomerase I compared to SN-38 and topotecan” value on topoisomerase I is “higher inhibitory activity”.
